Reference: US6060468A, “N-substituted azaheterocyclic compounds” (Novo Nordisk A/S, priority 1996, dated 2000)

Tested on: histamine induced paw oedema
Experiment: Histamine induced paw oedema (rat)
Type: in vivo, male Sprague-Dawley rats
Settings: 1.0 mg/kg, intraperitoneal, 15 min before anaesthetics; histamine 50 microliter 3 mg/ml in right hind paw; swelling after 20 min
Description: I. Histamine Induced Paw Oedema The rat histamine paw oedema test was performed essentially as described by Amann et al. (Europ. J. Pharmacol. 279, 227-231, 1995). In brief 250-300 g male Sprague-Dawley rats were anaesthetized with pentobarbital sodium, and placed on a 32 degree (Celsius) heated table. Ten minutes later histamine (50 micoliter, 3 mg/ml) was injected in the right hind paw and 20 minutes hereafter the paw swelling was determined by water plethysmography (Ugo Basile). Test compounds were administered intraperitoneally at 15 minutes before the anaesthetics. Values for inhibition of histamine induced oedema response for some representative compounds are recorded in table 1.

Cc1ccc2c(c1)CC(OCCN1CCCC(C(=O)O)C1)c1ccccc1S2.O=C(O)C(=O)O (centres unmarked) [Example 5, 1-(2-(2-Methyl-10,11-dihydrodibenzo[b,f]thiepin-10-yloxy)-1-ethyl)-3-piperidinecarboxylic acid hydrogen oxalate]
% Oedema inhibition (inhibition of histamine induced oedema response): 49%

O=C(O)[C@@H]1CCCN(CCOC2Cc3ccccc3Sc3ccccc32)C1 (stereo partly drawn) [Example 1, 1-(2-(10,11-Dihydrodibenzo[b,f]thiepin-10-yloxy)-1-ethyl)-(3R)-piperidinecarboxylic acid acetate]
% Oedema inhibition (inhibition of histamine induced oedema response): 37%
